Data taken from patent publication US20250195530A1, “POLQ INHIBITORS” (ASTRAZENECA AB, priority 2022, published 2025).

Each compound was assayed on DLD-1 BRCA2−/− cells (assay: Homologous recombination synthetic lethal inhibition of proliferation, DLD-1 BRCA2-/- (Cell Titre Glo 3D)). Details: Homo sapiens, DLD-1, first proliferation column (c5); DLD-1 BRCA2-/-; read-out: POLQ PD Prolif Lumin (converted).
Assay type: cell-based
How it was run: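 Luminescent Cell Titre Glo 3D readout, taken on day 12 for homologous-recombination-deficient DLD-1 BRCA2−/− and day 7 for the wild-type control, after compound refresh on day 6. Compounds spanned 10 μM to 0.51 nM in three-fold steps; IC50 defined as 50% reduction of average maximum signal.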

Row | SMILES | IC50 [nM]
1 | CC1(Oc2ncnc3c2nc(-c2ccc(CCCC(=O)O)cc2Cl)n3Cc2cccc(Cl)c2)CC1 [Example T155, 4-(3-chloro-4-(9-(3-chlorobenzyl)-6-(1-methylcyclopropoxy)-9H-purin-8-yl)phenyl)butanoic acid] | 631
2 | COC(=O)CCOc1ccc(-c2nc3c(OC4(C)CC4)ncnc3n2Cc2cccc(Cl)c2)c(Cl)c1 [Example T156, methyl 3-(3-chloro-4-(9-(3-chlorobenzyl)-6-(1-methylcyclopropoxy)-9H-purin-8-yl)phenoxy)propanoate] | 200
3 | C[C@H](COc1cccc(-c2nc3c(OC4(C)CC4)ncnc3n2Cc2cccc(Cl)c2)c1Cl)C(=O)O [Example T159, (R)-3-(2-chloro-3-(9-(3-chlorobenzyl)-6-(1-methylcyclopropoxy)-9H-purin-8-yl)phenoxy)-2-methylpropanoic acid] | 126
4 | C[C@@H](COc1cccc(-c2nc3c(OC4(C)CC4)ncnc3n2Cc2cccc(Cl)c2)c1Cl)C(=O)O [Example T160, (S)-3-(2-chloro-3-(9-(3-chlorobenzyl)-6-(1-methylcyclopropoxy)-9H-purin-8-yl)phenoxy)-2-methylpropanoic acid] | 200
5 | CC1(Oc2ncnc3c2nc(-c2cccc(OCCOCC(=O)O)c2Cl)n3Cc2cccc(Cl)c2)CC1 [Example T162, 2-(2-(2-chloro-3-(9-(3-chlorobenzyl)-6-(1-methylcyclopropoxy)-9H-purin-8-yl)phenoxy)ethoxy)acetic acid] | 126
6 | CC1(Oc2ncnc3c2nc(-c2cccc(OCCCc4nn[nH]n4)c2Cl)n3Cc2cccc(Cl)c2)CC1 [Example T163, 8-(3-(3-(2H-tetrazol-5-yl)propoxy)-2-chlorophenyl)-9-(3-chlorobenzyl)-6-(1-methylcyclopropoxy)-9H-purine] | 251
7 | CC1(Oc2ncnc3c2nc(-c2ccc(OCCCc4nnn[nH]4)cc2Cl)n3Cc2cccc(Cl)c2)CC1 [Example T164, 8-(4-(3-(1H-tetrazol-5-yl)propoxy)-2-chlorophenyl)-9-(3-chlorobenzyl)-6-(1-methylcyclopropoxy)-9H-purine] | 794
8 | Cc1ccnc(Cn2c(-c3ccc(CC(=O)NCC(F)F)cc3Cl)nc3c(OC4(C)CC4)ncnc32)c1 [Example T165, 2-(3-chloro-4-(6-(1-methylcyclopropoxy)-9-((4-methylpyridin-2-yl)methyl)-9H-purin-8-yl)phenyl)-N-(2,2-difluoroethyl)acetamide] | 100
9 | Cc1ccnc(Cn2c(-c3ccc(OCC(=O)NCC(F)F)cc3Cl)nc3c(OC4(C)CC4)ncnc32)c1 [Example T166, 2-(3-chloro-4-(6-(1-methylcyclopropoxy)-9-((4-methylpyridin-2-yl)methyl)-9H-purin-8-yl)phenoxy)-N-(2,2-difluoroethyl)acetamide] | 316
10 | Cc1cccc(Cn2c(-c3ccc(OCCC(=O)O)cc3Cl)nc3c(OC4(C)CC4)ncnc32)c1 [Example T167, 3-(3-chloro-4-(9-(3-methylbenzyl)-6-(1-methylcyclopropoxy)-9H-purin-8-yl)phenoxy)propanoic acid] | 794
11 | Cc1ccccc1Cn1c(-c2ccc(OCCC(=O)O)cc2Cl)nc2c(OC3(C)CC3)ncnc21 [Example T168, 3-(3-chloro-4-(9-(2-methylbenzyl)-6-(1-methylcyclopropoxy)-9H-purin-8-yl)phenoxy)propanoic acid] | 1260
12 | Cc1ccnc(Cn2c(-c3ccc(C(=O)NC4CC4)cc3Cl)nc3c(OC4(C)CC4)ncnc32)c1 [Example T170, 3-chloro-N-cyclopropyl-4-(6-(1-methylcyclopropoxy)-9-((4-methylpyridin-2-yl)methyl)-9H-purin-8-yl)benzamide] | 631
13 | Cc1ccnc(Cn2c(-c3ccc(C(=O)NC4COC4)cc3Cl)nc3c(OC4(C)CC4)ncnc32)c1 [Example T177, 3-chloro-4-(6-(1-methylcyclopropoxy)-9-((4-methylpyridin-2-yl)methyl)-9H-purin-8-yl)-N-(oxetan-3-yl)benzamide] | 1000
